Results as given in patent US7888347B2, “Pyrazolo [3,4-D]azepine derivatives as histamine H3 antagonists” (Glaxo Group Limited, priority 2005, dated 2011).

Molecular target: T1, histamine H3 receptor (Homo sapiens, UniProt Q9Y5N1)
T1 construct: expressed in transfected cells; host or cells: CHO K1 cells (pSwitch/pGene GeneSwitch system, mifepristone-induced), clone 3H3; membrane preparation
Experiment: Histamine H3 functional antagonist assay ([35S]-GTPγS SPA on membranes)
Assay type: biochemical
Conditions: hydrochloride salts tested; membrane prepared from cultured H3 cells; averages of a number of experiments; read-out: functional pKi (fpKi), histamine H3 functional antagonism (converted)
Excerpt: A membrane preparation containing histamine H3 receptors may be prepared in accordance with the following procedures:
(i) Generation of Histamine H3 Cell Line
DNA encoding the human histamine H3 gene (Huvar, A. et al. (1999) Mol. Pharmacol. 55(6), 1101-1107) was cloned into a holding vector, pCDNA3.1 TOPO (InVitrogen) and its cDNA was isolated from this vector by restriction digestion of plasmid DNA with the enzymes BamH1 and Not-1 and ligated into the inducible expression vector pGene (InVitrogen) digested with the same enzymes. The GeneSwitch™ system (a system where in transgene expression is switched off in the absence of an inducer and switched on in the presence of an inducer) was performed as described in U.S. Pat. Nos. 5,364,791; 5,874,534; and 5,935,934. Ligated DNA was transformed into competent DH5α E. coli host bacterial cells and plated onto Luria Broth (LB) agar containing Zeocin™ (an antibiotic which allows the selection of cells expressing the sh ble gene which is present on pGene and pSwitch) at 50 μg ml^−1. Colonies containing the re-ligated plasmid were identified by restriction analysis. DNA for transfection into mammalian cells was prepared from 250 ml cultures of the host bacterium containing the pGeneH3 plasmid and isolated using a DNA preparation kit (Qiagen Midi-Prep) as per manufacturers guidelines (Qiagen).
CHO K1 cells previously transfected with the pSwitch regulatory plasmid (InVitrogen) were seeded at 2×10e6 cells per T75 flask in Complete Medium, containing Hams F12 (GIBCOBRL, Life Technologies) medium supplemented with 10% v/v dialysed foetal bovine serum, L-glutamine, and hygromycin (100 μg ml^−1), 24 hours prior to use. Plasmid DNA was transfected into the cells using Lipofectamine plus according to the manufacturers guidelines (InVitrogen). 48 hours post transfection cells were placed into complete medium supplemented with 500 μg ml^−1 Zeocin™.
10-14 days post selection 10 nM Mifepristone (InVitrogen), was added to the culture medium to induce the expression of the receptor. 18 hours post induction cells were detached from the flask using ethylenediamine tetra-acetic acid (EDTA; 1:5000; InVitrogen), following several washes with phosphate buffered saline pH 7.4 and resuspended in Sorting Medium containing Minimum Essential Medium (MEM), without phenol red, and supplemented with Earles salts and 3% Foetal Clone II (Hyclone). Approximately 1×10e7 cells were examined for receptor expression by staining with a rabbit polyclonal antibody, 4a, raised against the N-terminal domain of the histamine H3 receptor, incubated on ice for 60 minutes, followed by two washes in sorting medium. Receptor bound antibody was detected by incubation of the cells for 60 minutes on ice with a goat anti rabbit antibody, conjugated with Alexa 488 fluorescence marker (Molecular Probes). Following two further washes with Sorting Medium, cells were filtered through a 50 μm Filcon™ (BD Biosciences) and then analysed on a FACS Vantage SE Flow Cytometer fitted with an Automatic Cell Deposition Unit. Control cells were non-induced cells treated in a similar manner. Positively stained cells were sorted as single cells into 96-well plates, containing Complete Medium containing 500 μg ml^−1 Zeocin™ and allowed to expand before reanalysis for receptor expression via antibody and ligand binding studies. One clone, 3H3, was selected for membrane preparation.
(ii) Membrane Preparation from Cultured Cells
All steps of the protocol are carried out at 4° C. and with pre-cooled reagents. The cell pellet is resuspended in 10 volumes of homogenisation buffer (50 mM N-2-hydroxyethylpiperazine-N′-2-ethanesulfonic acid (HEPES), 1 mM ethylenediamine tetra-acetic acid (EDTA), pH 7.4 with KOH), supplemented with 10e-4M leupeptin (acetyl-leucyl-leucyl-arginal; Sigma L2884), 25 μg/ml bacitracin (Sigma B0125), 1 mM phenylmethylsulfonyl fluoride (PMSF) and 2×10e-6M pepstatin A (Sigma). […]

T1 sequence (Q9Y5N1 whole entry): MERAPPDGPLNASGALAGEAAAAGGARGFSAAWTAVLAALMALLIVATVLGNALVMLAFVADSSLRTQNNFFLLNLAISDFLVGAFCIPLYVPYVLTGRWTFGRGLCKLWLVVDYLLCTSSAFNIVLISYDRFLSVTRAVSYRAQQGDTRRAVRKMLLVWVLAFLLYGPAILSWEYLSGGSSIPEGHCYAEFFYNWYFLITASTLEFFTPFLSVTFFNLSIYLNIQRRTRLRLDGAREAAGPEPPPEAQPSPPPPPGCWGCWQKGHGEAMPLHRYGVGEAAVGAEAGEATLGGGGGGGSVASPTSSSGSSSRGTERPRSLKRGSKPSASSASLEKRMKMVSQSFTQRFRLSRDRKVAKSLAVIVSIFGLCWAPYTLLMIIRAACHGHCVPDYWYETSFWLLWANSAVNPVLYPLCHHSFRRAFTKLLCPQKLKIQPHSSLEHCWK

SMILES | Ki [nM]
O=C1CCCN1c1ccc(-n2cc3c(n2)CCN(C2CCC2)CC3)cc1 [Example E13] | < 0.316
Cc1noc(-c2ccc(-n3cc4c(n3)CCN(C(C)C)CC4)cc2)n1 [Example E15, 6-(1-Methylethyl)-2-[4-(3-methyl-1,2,4-oxadiazol-5-yl)phenyl]-2,4,5,6,7,8-hexahydropyrazolo[3,4-d]azepine] | < 1
CC(C)N1CCc2cn(-c3ccc(N4CCN(C)C4=O)cc3)nc2CC1 [Example E10, 1-Methyl-3-{4-[6-(1-methylethyl)-5,6,7,8-tetrahydropyrazolo[3,4-d]azepin-2(4H)-yl]phenyl}-2-imidazolidinone] | < 1
CC(C)CN1CCc2cn(-c3ccc(N4CCOC4=O)cc3)nc2CC1 [Example E42] | < 1
CC(C)N1CCc2cn(-c3ccc(N4CCCC4=O)cc3)nc2CC1 [Example E14, 1-{4-[6-(1-Methylethyl)-5,6,7,8-tetrahydropyrazolo[3,4-d]azepin-2(4H)-yl]phenyl}-2-pyrrolidinone] | < 1
c1cc(-n2cc3c(n2)CCN(C2CCC2)CC3)ccc1N1CCOCC1 [Example E39, 6-Cyclobutyl-2-[4-(4-morpholinyl)phenyl]-2,4,5,6,7,8-hexahydropyrazolo[3,4-d]azepine] | < 1
O=C1CCCN1c1ccc(-n2cc3c(n2)CCN(C2CCC2)CC3)cn1 [Example E12, 1-[5-(6-Cyclobutyl-5,6,7,8-tetrahydropyrazolo[3,4-d]azepin-2(4H)-y)-2-pyridinyl]-2-pyrrolidinone] | < 1
Cc1ccc(N2CCC(n3cc4c(n3)CCN(C3CCC3)CC4)CC2)cn1 [Example E44, 6-Cyclobutyl-2-[1-(6-methyl-3-pyridinyl)-4-piperidinyl]-2,4,5,6,7,8-hexahydropyrazolo[3,4-d]azepine] | < 1
O=C1CCCN1c1ccc(-n2cc3c(n2)CCN(C2CCCC2)CC3)cc1 [Example E24, 1-[4-(6-Cyclopentyl-5,6,7,8-tetrahydropyrazolo[3,4-d]azepin-2(4H)-yl)phenyl]-2-pyrrolidinone] | < 1
Cc1noc(-c2ccc(-n3cc4c(n3)CCN(C3CCC3)CC4)cc2)n1 [Example E25, 6-Cyclobutyl-2-[4-(3-methyl-1,2,4-oxadiazol-5-yl)phenyl]-2,4,5,6,7,8-hexahydropyrazolo[3,4-d]azepine] | < 1
CCN1CCc2cn(-c3ccc(N4CCCC4=O)cc3)nc2CC1 [Example E18, 1-[4-(6-Ethyl-5,6,7,8-tetrahydropyrazolo[3,4-d]azepin-2(4H)-yl)phenyl]-2-pyrrolidinone] | < 0.316
CN1CCN(c2ccc(-n3cc4c(n3)CCN(C3CCCC3)CC4)cc2)C1=O [Example E31] | < 1
CC(C)CN1CCc2cn(-c3ccc(N4CCCC4=O)cc3)nc2CC1 [Example E20] | < 1
CN1CCN(c2ccc(-n3cc4c(n3)CCN(C3CCC3)CC4)cc2)C1=O [Example E36] | < 0.316
Cc1noc(-c2ccc(-n3cc4c(n3)CCN(C3CCCC3)CC4)cc2)n1 [Example E27, 6-Cyclopentyl-2-[4-(3-methyl-1,2,4-oxadiazol-5-yl)phenyl]-2,4,5,6,7,8-hexahydropyrazolo[3,4-d]azepine] | < 1
O=C1OCCN1c1ccc(-n2cc3c(n2)CCN(C2CCC2)CC3)cc1 [Example E37, 3-[4-(6-Cyclobutyl-5,6,7,8-tetrahydropyrazolo[3,4-d]azepin-2(4H)-yl)phenyl]-1,3-oxazolidin-2-one] | < 0.316
O=C1OCCN1c1ccc(-n2cc3c(n2)CCN(C2CCCC2)CC3)cc1 [Example E30] | < 1
CC(C)N1CCc2cn(-c3ccc(N4CCOC4=O)cc3)nc2CC1 [Example E9, 3-{4-[6-(1-Methylethyl)-5,6,7,8-tetrahydropyrazolo[3,4-d]azepin-2(4H)-yl]phenyl}-1,3-oxazolidin-2-one] | < 1
